Measurements: PMC9214071 (Acta Pharmaceutica Sinica. B, 2022)
Several values for one entry are separate records, joined by “and”; a condition that tells them apart may be missing. Equal entries are not always repeated. Where two headings read alike, the source gives them in different places. Marks after values point to notes of the source that are not given here.

How the values were obtained:
[1] = molecular target: T1, PAK4 (Homo sapiens, UniProt O96013); assay: PAK4 HTRF assay; type: biochemical; details: for LE: Ligand efficiency = (−1.4 Log Ki)/(n heavy atoms); for LE / Ki / LLE: PAK4 Ki; for Ki: HTRF, average of two independent experiments; for LLE: Ligand lipophilicity efficiency = (−Log Ki) − (cLogP)
[2] = in vitro; details: CD-1, mouse, mouse liver microsomes, pH 7.4
[3] = Liver microsomal stability assay, MLM
[4] = molecular target: PAK1 (Homo sapiens, UniProt Q13153); assay: PAK1 FRET-based Z'-Lyte assay; type: biochemical
[5] = system: A549; assay: Wound-healing assay, A549 cell migration; type: cell-based, human; details: 20 μmol/L
[6] = molecular target: T1, PAK4; details: read-out: PAK4 Ki (reported); cited from earlier work
[7] = at least two duplicate experiments, SEM < ±20%

T1 sequence (O96013 whole entry): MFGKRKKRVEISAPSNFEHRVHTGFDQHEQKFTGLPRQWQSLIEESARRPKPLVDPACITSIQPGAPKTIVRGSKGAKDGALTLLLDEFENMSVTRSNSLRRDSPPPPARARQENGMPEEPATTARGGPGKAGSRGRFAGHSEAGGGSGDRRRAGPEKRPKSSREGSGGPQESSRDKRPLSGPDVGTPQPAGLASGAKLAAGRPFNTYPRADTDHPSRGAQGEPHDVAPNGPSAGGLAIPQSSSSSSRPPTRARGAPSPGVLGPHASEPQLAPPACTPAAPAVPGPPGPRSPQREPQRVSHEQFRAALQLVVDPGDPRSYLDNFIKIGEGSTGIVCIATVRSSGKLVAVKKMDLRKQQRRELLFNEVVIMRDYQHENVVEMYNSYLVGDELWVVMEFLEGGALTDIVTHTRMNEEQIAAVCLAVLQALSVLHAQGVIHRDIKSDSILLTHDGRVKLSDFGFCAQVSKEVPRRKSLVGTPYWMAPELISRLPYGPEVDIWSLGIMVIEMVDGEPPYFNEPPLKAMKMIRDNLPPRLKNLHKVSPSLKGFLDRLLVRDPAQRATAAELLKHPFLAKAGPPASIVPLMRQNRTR
PAK1, sequence (Q13153 whole entry): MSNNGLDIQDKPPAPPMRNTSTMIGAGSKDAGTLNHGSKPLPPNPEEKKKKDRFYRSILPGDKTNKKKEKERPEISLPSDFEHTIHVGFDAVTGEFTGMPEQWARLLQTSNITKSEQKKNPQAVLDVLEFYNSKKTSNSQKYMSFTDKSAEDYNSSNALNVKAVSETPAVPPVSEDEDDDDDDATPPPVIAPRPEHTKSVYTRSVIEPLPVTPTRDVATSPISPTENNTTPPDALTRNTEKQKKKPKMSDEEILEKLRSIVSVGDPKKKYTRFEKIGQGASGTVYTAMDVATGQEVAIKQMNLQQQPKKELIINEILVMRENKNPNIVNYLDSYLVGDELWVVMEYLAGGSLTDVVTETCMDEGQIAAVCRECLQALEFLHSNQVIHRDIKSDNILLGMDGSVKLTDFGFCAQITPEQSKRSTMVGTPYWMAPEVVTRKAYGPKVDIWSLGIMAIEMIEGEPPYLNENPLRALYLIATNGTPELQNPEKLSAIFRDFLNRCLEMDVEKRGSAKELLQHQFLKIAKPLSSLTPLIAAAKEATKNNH

LE [1] | Ki [1] | SMILES | other results
0.39 | 66 nM | Nc1nccc(-n2ccc3ccc(C#CC4(O)CCCCC4)cc32)n1 [Compound 5] | –
0.38 | 82 nM | Nc1nccc(-n2ccc3cc(F)c(C#CC4(O)CCCCC4)cc32)n1 [Compound 5a] | –
0.33 | 370 nM | Nc1cc(-n2ccc3ccc(C#CC4(O)CCCCC4)cc32)nc(N)n1 [Compound 5b] | –
0.36 | 229 nM | Nc1cc(-n2ccc3ccc(C#CC4(O)CCCCC4)cc32)ncn1 [Compound 5c] | –
0.35 | 182 nM | Cc1cnc(N)nc1-n1ccc2ccc(C#CC3(O)CCCCC3)cc21 [Compound 5d] | –
0.40 | 40 nM | Nc1nccc(-n2ncc3ccc(C#CC4(O)CCCCC4)cc32)n1 [Compound 6] | –
0.40 | 36 nM | Nc1nccc(-n2ccc3ncc(C#CC4(O)CCCCC4)cc32)n1 [Compound 7] | –
0.42 | 13 nM | Nc1nccc(-n2ccc3cnc(C#CC4(O)CCCCC4)cc32)n1 [Compound 8] | –
0.36 | 183 nM | Nc1nccc(-n2ccc3ccc(C#CC4(O)CCCCC4)nc32)n1 [Compound 9] | –
– | 623 nM | OC1(C#Cc2ccc3ccn(-c4ccnc(NCc5ccccc5)n4)c3c2)CCCCC1 [Compound 10] | –
– | 223 nM | OC1(C#Cc2ccc3ccn(-c4ccnc(NCc5ccccc5F)n4)c3c2)CCCCC1 [Compound 11] | –
– | 355 nM | OC1(C#Cc2ccc3ccn(-c4ccnc(NCc5ccccc5Cl)n4)c3c2)CCCCC1 [Compound 12] | –
– | 291 nM | OC1(C#Cc2ccc3ccn(-c4ccnc(NCc5ccc(F)cc5)n4)c3c2)CCCCC1 [Compound 13] | –
– | 7450 nM | OC1(C#Cc2ccc3ccn(-c4ccnc(NCc5cccs5)n4)c3c2)CCCCC1 [Compound 14] | –
– | 217 nM | OC1(C#Cc2ccc3ccn(-c4ccnc(Nc5ccccc5)n4)c3c2)CCCCC1 [Compound 15] | –
– | 105 nM | OC1(C#Cc2ccc3ccn(-c4ccnc(Nc5cccc(Cl)c5)n4)c3c2)CCCCC1 [Compound 16] | –
– | 157 nM | O=[N+]([O-])c1cccc(Nc2nccc(-n3ccc4ccc(C#CC5(O)CCCCC5)cc43)n2)c1 [Compound 17] | –
– | 242 nM | N#Cc1cccc(Nc2nccc(-n3ccc4ccc(C#CC5(O)CCCCC5)cc43)n2)c1 [Compound 18] | –
– | 212 nM | Cc1cccc(Nc2nccc(-n3ccc4ccc(C#CC5(O)CCCCC5)cc43)n2)c1 [Compound 19] | –
– | 396 nM | OC1(C#Cc2ccc3ccn(-c4ccnc(Nc5ccccc5F)n4)c3c2)CCCCC1 [Compound 20] | –
– | 173 nM | OC1(C#Cc2ccc3ccn(-c4ccnc(Nc5ccccc5C(F)(F)F)n4)c3c2)CCCCC1 [Compound 21] | –
– | 709 nM | Cc1ccccc1Nc1nccc(-n2ccc3ccc(C#CC4(O)CCCCC4)cc32)n1 [Compound 22] | –
– | 298 nM | COc1ccc(Nc2nccc(-n3ccc4ccc(C#CC5(O)CCCCC5)cc43)n2)cc1 [Compound 24] | –
– | 189 nM | OC1(C#Cc2ccc3ccn(-c4ccnc(Nc5ccc(F)c(Cl)c5)n4)c3c2)CCCCC1 [Compound 25] | –
– | 83 nM | NS(=O)(=O)c1cccc(Nc2nccc(-n3ccc4ccc(C#CC5(O)CCCCC5)cc43)n2)c1 [Compound 26] | –
– | 680 nM | COCCNc1nccc(-n2ccc3ccc(C#CC4(O)CCCCC4)cc32)n1 [Compound 28] | –

LE [1] | Ki [1] | SMILES | other results
– | 1110 nM | CC(C)Nc1nccc(-n2ccc3ccc(C#CC4(O)CCCCC4)cc32)n1 [Compound 29] | –
– | 593 nM | Nc1nccc(-n2cc(C(=O)NCc3ccccc3)c3ccc(C#CC4(O)CCCCC4)cc32)n1 [Compound 30] | –
– | 804 nM | Nc1nccc(-n2cc(C(=O)Nc3ccccc3)c3ccc(C#CC4(O)CCCCC4)cc32)n1 [Compound 31] | –
– | 243 nM | Nc1nccc(-n2cc(C(=O)Nc3nccs3)c3ccc(C#CC4(O)CCCCC4)cc32)n1 [Compound 32] | –
– | 239 nM | Nc1nccc(-n2cc(C(=O)Nc3cc[nH]n3)c3ccc(C#CC4(O)CCCCC4)cc32)n1 [Compound 33] | –
– | 94 nM | Nc1ccn(C(=O)c2cn(-c3ccnc(N)n3)c3cc(C#CC4(O)CCCCC4)ccc23)n1 [Compound 34] | –
– | 376 nM | Nc1nccc(-n2cc(C(=O)Nc3cc(O)[nH]n3)c3ccc(C#CC4(O)CCCCC4)cc32)n1 [Compound 35] | –
– | 119 nM | Nc1nccc(-n2cc(C(=O)N3CCOCC3)c3ccc(C#CC4(O)CCCCC4)cc32)n1 [Compound 37] | –
– | 38 nM | CN1CCN(C(=O)c2cn(-c3ccnc(N)n3)c3cc(C#CC4(O)CCCCC4)ccc23)CC1 [Compound 38] | –
– | 82 nM | CN(C)C(=O)c1cn(-c2ccnc(N)n2)c2cc(C#CC3(O)CCCCC3)ccc12 [Compound 39] | –
– | 44 nM | CNC(=O)c1cn(-c2ccnc(N)n2)c2cc(C#CC3(O)CCCCC3)ccc12 [Compound 40] | –
– | 14 nM | NC(=O)c1cn(-c2ccnc(N)n2)c2cc(C#CC3(O)CCCCC3)ccc12 [Compound 41] | half-life at 1 μmol/L [2]: 23.7 min; liver clearance [3]: 105.5 mL/min/kg
0.35 | 6.6 nM | Nc1nccc(-n2cc(C(=O)N3CCNCC3)c3ccc(C#CC4(O)CCCCC4)cc32)n1 [Compound 42] | LLE [1]: 4.97; fold increase of inhibitory capacity compared to 37 ([1]; PAK4, relative to 37): 18 fold; Ki [4, 7]: 4990 nM; A549, effect of compounds on the cell mobility [5]: 65% ^h
0.29 | 42.6 nM | Nc1nccc(-n2cc(C(=O)N3CCC(N)CC3)c3ccc(C#CC4(O)CCCCC4)cc32)n1 [Compound 43] | LLE [1]: 4.16; Ki [4, 7]: 1610 nM
0.32 | 8.3 nM | Nc1nccc(-n2cc(C(=O)NC3CCNCC3)c3ccc(C#CC4(O)CCCCC4)cc32)n1 [Compound 44] | LLE [1]: 5.28; Ki [4, 7]: 4240 nM
0.30 | 25.6 nM | Nc1nccc(-n2cc(C(=O)N3CCC[C@H](N)C3)c3ccc(C#CC4(O)CCCCC4)cc32)n1 [Compound 45, (S)-(3-Aminopiperidin-1-yl) (1-(2-aminopyrimidin-4-yl)-6-((1-hydroxycyclohexyl)ethynyl)-1H-indol-3-yl)methanone] | LLE [1]: 4.80; Ki [4, 7]: 2370 nM
0.34 | 3.4 nM | Nc1nccc(-n2cc(C(=O)N3CCC[C@@H](N)C3)c3ccc(C#CC4(O)CCCCC4)cc32)n1 [Compound 47] | IC50 [1]: 6.3 nM; LLE [1]: 5.65; Ki [4]: 6990 nM; Ki [4, 7]: 6990 nM
0.33 | 5.6 nM | Nc1nccc(-n2cc(C(=O)N[C@@H]3CCCNC3)c3ccc(C#CC4(O)CCCCC4)cc32)n1 [Compound 48] | LLE [1]: 5.42; Ki [4, 7]: 7130 nM
0.27 | 207 nM | Nc1nccc(-n2cc(C(=O)N3CCC[C@@H](O)C3)c3ccc(C#CC4(O)CCCCC4)cc32)n1 [Compound 49] | LLE [1]: 4.12; factor of reduced activity relative to 47 ([1]; PAK4, relative to 47): 60
0.31 | 27.2 nM | Nc1nccc(-n2cc(C(=O)N[C@H]3CCNC3)c3ccc(C#CC4(O)CCCCC4)cc32)n1 [Compound 50] | LLE [1]: 4.40
0.31 | 25.5 nM | Nc1nccc(-n2cc(C(=O)N3CC[C@@H](N)C3)c3ccc(C#CC4(O)CCCCC4)cc32)n1 [Compound 51] | LLE [1]: 4.42; Ki [4, 7]: 6340 nM
0.31 | 30.9 nM | Nc1nccc(-n2cc(C(=O)N[C@@H]3CCNC3)c3ccc(C#CC4(O)CCCCC4)cc32)n1 [Compound 52] | LLE [1]: 5.48
0.31 | 22.7 nM | Nc1nccc(-n2cc(C(=O)N3CC[C@H](N)C3)c3ccc(C#CC4(O)CCCCC4)cc32)n1 [Compound 53] | LLE [1]: 4.47; Ki [4, 7]: 2870 nM
0.27 | 148 nM | C[C@@H]1CN(C(=O)c2cn(-c3ccnc(N)n3)c3cc(C#CC4(O)CCCCC4)ccc23)CCN1 [Compound 54] | LLE [1]: 3.53; fold less potency than 55 against PAK4 ([1]; relative to 55): approximately 14 fold
0.31 | 18.1 nM | Nc1nccc(-n2cc(C(=O)N3CCNC(=O)C3)c3ccc(C#CC4(O)CCCCC4)cc32)n1 [Compound 56, 4-(1-(2-Aminopyrimidin-4-yl)-6-((1-hydroxycyclohexyl)ethynyl)-1H-indole-3-carbonyl)piperazin-2-one] | LLE [1]: 5.17; Ki [4, 7]: 4990 nM
– | 35 nM and 35.3 nM | COCCNc1nc2ccc(C#CC3(O)CCCCC3)cc2n1-c1ccnc(N)n1 [GNE-2861, reference compound] | Ki [4, 7]: 3130 nM; Ki [6]: 3 nM
